Key:
[1] = 298.15 K; 101.33 kPa; Liquid; Vibrating tube method
[2] = excess molar enthalpy (molar enthalpy of mixing); xn = mol fraction of the nth substance listed; conditions: 298.15 K, 100 kPa, Liquid, Power-compensation calorimetry

CCCC[N+]1(C)CCCC1.N#C[B-](C#N)(C#N)C#N [1-butyl-1-methylpyrrolidinium tetracyanoborate]
Conditions	mass density [kg/m3]
[1]	975.61

c1ccccc1 [benzene]
Conditions	mass density [kg/m3]
[1]	873.57

CCCC[N+]1(C)CCCC1.N#C[B-](C#N)(C#N)C#N [1-butyl-1-methylpyrrolidinium tetracyanoborate] + CCO
[2]
Conditions	excess molar enthalpy [kcal/mol]
x1 = 0.0134	0.0375
x1 = 0.0268	0.0729
x1 = 0.0402	0.107
x1 = 0.0537	0.14
x1 = 0.0672	0.171
x1 = 0.0808	0.201
x1 = 0.0948	0.23
x1 = 0.1088	0.257
x1 = 0.1228	0.283
x1 = 0.1368	0.307
x1 = 0.1509	0.329
x1 = 0.1511	0.334
x1 = 0.165	0.35
x1 = 0.1652	0.355
x1 = 0.1792	0.369
x1 = 0.1902	0.389
x1 = 0.1933	0.387
x1 = 0.2067	0.403
x1 = 0.2202	0.424
x1 = 0.2403	0.444
x1 = 0.2803	0.477
x1 = 0.3203	0.501
x1 = 0.3604	0.517
x1 = 0.4005	0.525
x1 = 0.4406	0.527
x1 = 0.4806	0.521
x1 = 0.5206	0.51
x1 = 0.5607	0.492
x1 = 0.6007	0.47
x1 = 0.6408	0.441
x1 = 0.6807	0.408
x1 = 0.7203	0.371
x1 = 0.7604	0.328
x1 = 0.8002	0.282
x1 = 0.8402	0.232
x1 = 0.8802	0.178
x1 = 0.9201	0.121
x1 = 0.96	0.0612

CCCCO [butan-1-ol]
Conditions	mass density [kg/m3]
[1]	805.79

CO [methanol]
Conditions	mass density [kg/m3]
[1]	786.6

Cc1ccccc1 [toluene]
Conditions	mass density [kg/m3]
[1]	862.22

CCCC[N+]1(C)CCCC1.N#C[B-](C#N)(C#N)C#N [1-butyl-1-methylpyrrolidinium tetracyanoborate] + CO
[2]
Conditions	excess molar enthalpy [kcal/mol]
x1 = 0.013	0.0258
x1 = 0.026	0.0519
x1 = 0.039	0.0782
x1 = 0.052	0.104
x1 = 0.065	0.129
x1 = 0.078	0.153
x1 = 0.091	0.176
x1 = 0.104	0.197
x1 = 0.117	0.218
x1 = 0.13	0.237
x1 = 0.1362	0.255
x1 = 0.143	0.254
x1 = 0.156	0.271
x1 = 0.1602	0.288
x1 = 0.169	0.287
x1 = 0.1775	0.297
x1 = 0.2003	0.334
x1 = 0.2404	0.37
x1 = 0.2805	0.399
x1 = 0.3207	0.419
x1 = 0.3608	0.432
x1 = 0.4009	0.439
x1 = 0.441	0.439
x1 = 0.4812	0.434
x1 = 0.5213	0.423
x1 = 0.5615	0.407
x1 = 0.6016	0.386
x1 = 0.6416	0.361
x1 = 0.6816	0.331
x1 = 0.7217	0.298
x1 = 0.7616	0.261
x1 = 0.8015	0.221
x1 = 0.8414	0.177
x1 = 0.8814	0.13
x1 = 0.9213	0.0811
x1 = 0.9606	0.0317

CCCC[N+]1(C)CCCC1.N#C[B-](C#N)(C#N)C#N [1-butyl-1-methylpyrrolidinium tetracyanoborate] + CCCCO
[2]
Conditions	excess molar enthalpy [kcal/mol]
x1 = 0.0149	0.0582
x1 = 0.03	0.111
x1 = 0.0449	0.159
x1 = 0.0599	0.202
x1 = 0.0749	0.242
x1 = 0.0899	0.279
x1 = 0.1049	0.313
x1 = 0.1199	0.344
x1 = 0.1349	0.373
x1 = 0.1499	0.4
x1 = 0.1649	0.425
x1 = 0.1799	0.448
x1 = 0.1949	0.469
x1 = 0.2099	0.489
x1 = 0.2248	0.507
x1 = 0.2399	0.524
x1 = 0.2549	0.539
x1 = 0.2698	0.553
x1 = 0.2849	0.565
x1 = 0.2999	0.576
x1 = 0.4828	0.591
x1 = 0.5199	0.579
x1 = 0.557	0.561
x1 = 0.5941	0.537
x1 = 0.631	0.508
x1 = 0.6681	0.474
x1 = 0.7049	0.435
x1 = 0.7419	0.392
x1 = 0.7789	0.346
x1 = 0.8157	0.295
x1 = 0.8525	0.242
x1 = 0.8892	0.186
x1 = 0.9262	0.126
x1 = 0.9632	0.0638

CCCC[N+]1(C)CCCC1.N#C[B-](C#N)(C#N)C#N [1-butyl-1-methylpyrrolidinium tetracyanoborate] + c1ccccc1
[2]
Conditions	excess molar enthalpy [kcal/mol]
x1 = 0.0138	-0.0203
x1 = 0.0277	-0.0402
x1 = 0.0415	-0.06
x1 = 0.0555	-0.0799
x1 = 0.0694	-0.0998
x1 = 0.0834	-0.12
x1 = 0.0975	-0.14
x1 = 0.1115	-0.16
x1 = 0.1256	-0.18
x1 = 0.1398	-0.2
x1 = 0.1539	-0.219
x1 = 0.1681	-0.238
x1 = 0.1824	-0.253
x1 = 0.1966	-0.266
x1 = 0.2109	-0.277
x1 = 0.2253	-0.285
x1 = 0.2396	-0.29
x1 = 0.2534	-0.29
x1 = 0.254	-0.294
x1 = 0.2685	-0.296
x1 = 0.2767	-0.296
x1 = 0.28	-0.296
x1 = 0.3165	-0.294
x1 = 0.3564	-0.284
x1 = 0.3963	-0.269
x1 = 0.4362	-0.252
x1 = 0.4762	-0.232
x1 = 0.5162	-0.212
x1 = 0.5564	-0.192
x1 = 0.5965	-0.172
x1 = 0.6367	-0.153
x1 = 0.6769	-0.134
x1 = 0.7172	-0.116
x1 = 0.7575	-0.0981
x1 = 0.7979	-0.0803
x1 = 0.8384	-0.0632
x1 = 0.8788	-0.0466
x1 = 0.9191	-0.0305
x1 = 0.9596	-0.0149

CCCC[N+]1(C)CCCC1.N#C[B-](C#N)(C#N)C#N [1-butyl-1-methylpyrrolidinium tetracyanoborate] + c1ccsc1
[2]
Conditions	excess molar enthalpy [kcal/mol]
x1 = 0.0147	-0.0239
x1 = 0.0293	-0.0467
x1 = 0.0439	-0.0692
x1 = 0.0586	-0.0916
x1 = 0.0732	-0.114
x1 = 0.0879	-0.136
x1 = 0.1026	-0.158
x1 = 0.1173	-0.18
x1 = 0.1321	-0.202
x1 = 0.1468	-0.224
x1 = 0.1616	-0.245
x1 = 0.1763	-0.263
x1 = 0.1911	-0.279
x1 = 0.2059	-0.292
x1 = 0.2207	-0.302
x1 = 0.2316	-0.303
x1 = 0.2355	-0.31
x1 = 0.2503	-0.316
x1 = 0.2515	-0.311
x1 = 0.2642	-0.319
x1 = 0.2763	-0.315
x1 = 0.316	-0.313
x1 = 0.3559	-0.303
x1 = 0.3957	-0.289
x1 = 0.4356	-0.272
x1 = 0.4756	-0.253
x1 = 0.5155	-0.233
x1 = 0.5556	-0.213
x1 = 0.5958	-0.192
x1 = 0.636	-0.172
x1 = 0.6763	-0.151
x1 = 0.7165	-0.131
x1 = 0.757	-0.111
x1 = 0.7974	-0.0918
x1 = 0.8378	-0.0726
x1 = 0.8782	-0.0537
x1 = 0.9188	-0.0352
x1 = 0.9595	-0.017

CCCC[N+]1(C)CCCC1.N#C[B-](C#N)(C#N)C#N [1-butyl-1-methylpyrrolidinium tetracyanoborate] + CCCO
[2]
Conditions	excess molar enthalpy [kcal/mol]
x1 = 0.014	0.0518
x1 = 0.028	0.0994
x1 = 0.042	0.143
x1 = 0.056	0.183
x1 = 0.07	0.22
x1 = 0.084	0.255
x1 = 0.098	0.287
x1 = 0.112	0.317
x1 = 0.126	0.345
x1 = 0.1399	0.37
x1 = 0.1539	0.394
x1 = 0.168	0.417
x1 = 0.1819	0.437
x1 = 0.1959	0.456
x1 = 0.21	0.474
x1 = 0.224	0.49
x1 = 0.2257	0.484
x1 = 0.238	0.504
x1 = 0.252	0.518
x1 = 0.2592	0.522
x1 = 0.264	0.528
x1 = 0.2983	0.553
x1 = 0.3374	0.573
x1 = 0.3765	0.584
x1 = 0.4156	0.588
x1 = 0.4547	0.584
x1 = 0.4938	0.573
x1 = 0.5329	0.556
x1 = 0.572	0.533
x1 = 0.611	0.505
x1 = 0.65	0.471
x1 = 0.6891	0.433
x1 = 0.7282	0.39
x1 = 0.7672	0.343
x1 = 0.8062	0.292
x1 = 0.8451	0.238
x1 = 0.8839	0.18
x1 = 0.9228	0.119
x1 = 0.9615	0.0556

CCCO [propan-1-ol]
Conditions	mass density [kg/m3]
[1]	799.56

c1ccsc1 [thiophene]
Conditions	mass density [kg/m3]
[1]	1058.46

CCO [ethanol]
Conditions	mass density [kg/m3]
[1]	785.39

CCCC[N+]1(C)CCCC1.N#C[B-](C#N)(C#N)C#N [1-butyl-1-methylpyrrolidinium tetracyanoborate] + Cc1ccccc1
[2]
Conditions	excess molar enthalpy [kcal/mol]
x1 = 0.0179	-0.0242
x1 = 0.0359	-0.0474
x1 = 0.0539	-0.0702
x1 = 0.0719	-0.093
x1 = 0.0898	-0.116
x1 = 0.1079	-0.138
x1 = 0.1259	-0.161
x1 = 0.1439	-0.184
x1 = 0.1619	-0.206
x1 = 0.1799	-0.228
x1 = 0.1979	-0.249
x1 = 0.2159	-0.271
x1 = 0.2339	-0.291
x1 = 0.2519	-0.304
x1 = 0.2698	-0.313
x1 = 0.2878	-0.319
x1 = 0.2933	-0.315
x1 = 0.3059	-0.322
x1 = 0.3203	-0.319
x1 = 0.3239	-0.323
x1 = 0.3369	-0.321
x1 = 0.3603	-0.312
x1 = 0.4004	-0.301
x1 = 0.4405	-0.285
x1 = 0.4805	-0.267
x1 = 0.5206	-0.247
x1 = 0.5606	-0.226
x1 = 0.6006	-0.206
x1 = 0.6407	-0.184
x1 = 0.6807	-0.163
x1 = 0.7207	-0.141
x1 = 0.7606	-0.12
x1 = 0.8006	-0.0991
x1 = 0.8405	-0.0784
x1 = 0.8803	-0.058
x1 = 0.9202	-0.0379
x1 = 0.9601	-0.0183
